The source of these data is BindingDB's records for doi:10.1016/j.ejmech.2021.113889 (China Pharmaceutical University, 2021).

Molecules are shown by their SMILES.

This assay has as its target Glycogen synthase kinase-3 beta (Homo sapiens, UniProt P49841). Put plainly: Binding affinity to recombinant GSK3beta (unknown origin) assessed as dissociation rate constant upto 0.00975 uM by SPR analysis. A general note: Surface plasmon resonance follows binding to a sensor surface in real time, without labels.

Chain of Glycogen synthase kinase-3 beta (P49841 whole entry): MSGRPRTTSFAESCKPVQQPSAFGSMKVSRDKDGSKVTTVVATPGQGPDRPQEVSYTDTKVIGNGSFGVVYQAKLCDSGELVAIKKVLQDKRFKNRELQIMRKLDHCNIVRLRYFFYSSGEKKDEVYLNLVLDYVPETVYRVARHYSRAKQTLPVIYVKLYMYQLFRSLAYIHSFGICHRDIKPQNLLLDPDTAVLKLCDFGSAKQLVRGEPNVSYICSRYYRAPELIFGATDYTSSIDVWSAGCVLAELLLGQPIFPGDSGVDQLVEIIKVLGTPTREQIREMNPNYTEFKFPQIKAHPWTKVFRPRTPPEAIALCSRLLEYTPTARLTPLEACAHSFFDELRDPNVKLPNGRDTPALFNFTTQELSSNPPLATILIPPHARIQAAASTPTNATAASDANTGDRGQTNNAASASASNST

Broadly, the koff is a measure of how fast the partners let go of each other. With `Nc1ncc(-c2ccc(S(=O)(=O)N3CCN(CCCCc4cn(CCOCCOCCOCCOCCOCCNc5cccc6c5C(=O)N(C5CCC(=O)NC5=O)C6=O)nn4)CC3)cc2)nc1C(=O)Nc1cccnc1` (stereo unspecified), the koff worked out at 0.0253 s⁻¹.
